In patent US9029337B2, “Modulation of factor 7 expression” (Isis Pharmaceuticals, Inc., priority 2007, dated 2015):
e = 2'-O-(2-methoxyethyl) (MOE); d = 2'-deoxy (DNA)

How the values were obtained:
murine Factor 7 mRNA = assay: Multiple dose pharmacokinetic assay: liver Factor 7 mRNA in mice; assay type: in vivo, mouse; details: for % Inhibition: liver Factor 7 mRNA, mice, relative to PBS control
Experimental: The duration of action of multiple doses of ISIS 403102 on antisense inhibition of murine Factor 7 and clotting time was evaluated. In a first group of mice, 25 mg/kg of ISIS 403102 was injected subcutaneously as a single dose. Mice from the first group were sacrificed on days 1 and 3 after the single dose. In a second group of mice, 25 mg/kg of ISIS 403102 was administered subcutaneously twice a week for 1 week. Mice from the second group were sacrificed on day 3 after the last dose of ISIS 403102 was administered. In a third group of mice, 25 mg/kg of ISIS 403102 was administered subcutaneously twice a week for 2 weeks. Mice from the third group were sacrificed on day 3 after the last dose of ISIS 403102 was administered. In a fourth group of mice, 25 mg/kg of ISIS 403102 was administered subcutaneously twice a week for 3 weeks. Mice from the fourth group were sacrificed on days 2, 7, 14, 28, 42, and 56 after the last dose of ISIS 403102 was administered. A control group of 3 mice was injected with PBS in a single dose. Mice from the control group were sacrificed 1 day later. Mice in all groups were sacrificed by cervical dislocation following anesthesia with 150 mg/kg ketamine mixed with 10 mg/kg xylazine administered by intraperitoneal injection. Liver was harvested for RNA analysis and plasma was collected for clotting analysis (PT and aPTT) for mice in all groups.
RNA was extracted from liver tissue for quantitative RT-PCR analysis of Factor 7. Results are presented as percent inhibition of Factor 7, relative to PBS control. […] Inhibition increased through day 3 in the single dose treatment group. […] Inhibition increased through day 3 in the 2 dose treatment group.

[1] = system: extrinsic pathway of blood coagulation; assay: Prothrombin Time (PT) in platelet poor plasma of treated BALB/c mice; assay type: in vivo, mouse
Experimental: (§1) Prothrombin Time (PT) and Activated Partial Thromboplastin Time (aPTT) were measured using platelet poor plasma (PPP) from mice treated with ISIS 403102. PT and aPTT values provided in Table 20 are reported as International Normalized Ratio (INR) values. INR values for PT and aPTT were determined by dividing the PT or aPTT value for the experimental group by the PT or aPTT for the PBS treated group. This ratio was then raised to the power of the International Sensitivity Index (ISI) of the tissue factor used.
as §1, with “in Table 22 are reported” for “in Table 20 are reported”, “experimental group (i.e. 50 mg/kg treatment with ISIS 403102) by the” for “experimental group by the”
as §1, with “in Table 24 are reported” for “in Table 20 are reported”, “experimental group (i.e. 50 mg/kg treatment with ISIS 403102) by the” for “experimental group by the”

CCATAGAACAGCTTCACAGG (sugars from the 5' end e5 d10 e5, backbone and methylation of C not given here) [ISIS 403102]
Factor 7 inhibition (murine Factor 7 mRNA; 6 doses of 25 mg/kg, days 14, 28, 42 and 56 after last dose): declined progressively | % Inhibition (murine Factor 7 mRNA; 25 mg/kg subcutaneously twice a week, 2 doses, 3 days after last dose): 86% | % Inhibition (murine Factor 7 mRNA; 25 mg/kg subcutaneously twice a week, 4 doses, 3 days after last dose): 91% | % Inhibition (murine Factor 7 mRNA; 25 mg/kg subcutaneously twice a week, 6 doses, 2 days after last dose): 83% | % Inhibition (murine Factor 7 mRNA; 25 mg/kg subcutaneously twice a week, 6 doses, 7 days after last dose): 88% | % Inhibition (murine Factor 7 mRNA; 25 mg/kg subcutaneously twice a week, 6 doses, 14 days after last dose): 64% | % Inhibition (murine Factor 7 mRNA; 25 mg/kg subcutaneously twice a week, 6 doses, 28 days after last dose): 33% | % Inhibition (murine Factor 7 mRNA; 25 mg/kg subcutaneously twice a week, 6 doses, 42 days after last dose): 5% | % Inhibition (murine Factor 7 mRNA; 25 mg/kg subcutaneously twice a week, 6 doses, 56 days after last dose): 11% | % Inhibition (murine Factor 7 mRNA; 25 mg/kg subcutaneously, 1 dose, 1 day after last dose): 44% | % Inhibition (murine Factor 7 mRNA; 25 mg/kg subcutaneously, 1 dose, 3 days after last dose): 74% | inhibition of Factor 7 mRNA (murine Factor 7 mRNA; single dose 25 mg/kg subcutaneously): inhibition of Factor 7 as early as day 1 | PT INR ([1]; BALB/c mice, 5 mg/kg, relative to PBS treated group): 1.09 | PT INR ([1]; BALB/c mice, 10 mg/kg, relative to PBS treated group): 1.33 | PT INR ([1]; BALB/c mice, 25 mg/kg, relative to PBS treated group): 2.33 | PT INR ([1]; BALB/c mice, 50 mg/kg, 1 dose, 1 day after last dose, relative to PBS group): 1.04 INR | PT INR ([1]; BALB/c mice, 50 mg/kg, 1 dose, 3 days after last dose, relative to PBS group): 1.20 INR | PT INR ([1]; BALB/c mice, 50 mg/kg, 2 doses, 3 days after last dose, relative to PBS group): 1.43 INR | PT INR ([1]; BALB/c mice, 50 mg/kg, 4 doses, 3 days after last dose, relative to PBS group): 2.13 INR | PT INR ([1]; BALB/c mice, 50 mg/kg, 6 doses, 2 days after last dose, relative to PBS group): 1.64 INR | PT INR ([1]; BALB/c mice, 50 mg/kg, 6 doses, 7 days after last dose, relative to PBS group): 2.08 INR | PT INR ([1]; BALB/c mice, 50 mg/kg, 6 doses, 14 days after last dose, relative to PBS group): 1.37 INR | PT INR ([1]; BALB/c mice, 50 mg/kg, 6 doses, 28 days after last dose, relative to PBS group): 0.96 INR | PT INR ([1]; BALB/c mice, 50 mg/kg, 6 doses, 42 days after last dose, relative to PBS group): 1.00 INR | PT INR ([1]; BALB/c mice, 50 mg/kg, 6 doses, 56 days after last dose, relative to PBS group): 0.99 INR | PT INR ([1]; BALB/c mice, 50 mg/kg, relative to PBS treated group): 4.37 | PT INR ([1]; BALB/c mice, single dose 50 mg/kg, day 1): 1.11 | PT INR ([1]; BALB/c mice, single dose 50 mg/kg, day 2): 1.64 | PT INR ([1]; BALB/c mice, single dose 50 mg/kg, day 3): 1.81 | PT INR ([1]; BALB/c mice, single dose 50 mg/kg, day 4): 1.97 | PT INR ([1]; BALB/c mice, single dose 50 mg/kg, day 6): 1.59 | PT INR ([1]; BALB/c mice, single dose 50 mg/kg, day 8): 1.55 | PT INR ([1]; BALB/c mice, single dose 50 mg/kg, day 12): 1.30 | PT INR ([1]; BALB/c mice, single dose 50 mg/kg, day 24): 1.12 | PT INR ([1]; BALB/c mice, single dose 50 mg/kg, day 56): 1.10 | PT compared to the control ([1]; Example 11, 5-50 mg/kg twice a week for 3 weeks): significantly prolonged | PT ([1]; Example 13, 6 doses, from day 7 to day 56): decreased | PT INR ([1]; single dose 50 mg/kg, day 1): 1.11 | PT INR ([1]; single dose 50 mg/kg, day 4): 1.97 | PT INR ([1]; single dose 50 mg/kg, day 56): 1.10
